Test results published in ChEMBL document CHEMBL2069279, “Target fishing and docking studies of the novel derivatives of aryl-aminopyridines with potential anticancer activity” (Bioorg Med Chem, 2012).

Assays:
[1] = system: PBMC; experiment: Cytotoxicity against human PBMC cells in presence of phytohemagglutinin after 72 hrs by MTT assay; assay type: cell-based
[2] = system: PBMC; experiment: Cytotoxicity against human PBMC cells in absence of phytohemagglutinin after 72 hrs by MTT assay; assay type: cell-based
[3] = system: K562; experiment: Cytotoxicity against human K562 cells after 72 hrs by MTT assay; assay type: functional, cell-based; conditions: K562, 72 h
[4] = system: HeLa; experiment: Cytotoxicity against human HeLa cells after 72 hrs by MTT assay; assay type: functional, cell-based
[5] = Cytotoxicity against human Fem-X cells after 72 hrs by MTT assay; assay type: functional, cell-based
[6] = Homo sapiens, HeLa, 72 h, read-out: IC50

Compound | IC50 [1] | IC50 [2] | IC50 [3] | IC50 [4, 6] | IC50 [5] | IC50 ([4]; hela)
COc1ccc(Nc2c(-c3ccccc3)cnc3ccccc23)cc1 | 62 µM | 72 µM | 25 µM | 64 µM | 35 µM | 
Fc1ccc(Nc2ccc3ccccc3n2)cc1 | 65 µM | 90 µM | 36 µM | 33 µM | 35 µM | 
COc1ccc(Nc2ccc3ccccc3n2)cc1 | 70 µM | 91 µM | 30 µM | 51 µM | 43 µM | 
COc1cccc(Nc2nc3ccccc3cc2-c2ccccc2)c1 | 81 µM | 119 µM | 76 µM |  | 129 µM | ND(toxic)
COc1ccc(Nc2ccccn2)cc1 | 42 µM | 46 µM | 63 µM | 117 µM | 123 µM | 
COc1ccc(Nc2cc(-c3cccc(C(F)(F)F)c3)ccn2)cc1 | 105 µM | 132 µM | 78 µM | 140 µM | 68 µM | 
Cc1ccc(-c2ccnc(Nc3ccc(F)cc3)c2)cc1 | 146 µM | 127 µM | 54 µM | 146 µM | 79 µM | 
COc1ccc(Nc2c(-c3ccc(OC)cc3)cnc3ccccc23)cc1 | 105 µM | 122 µM | 25 µM | 104 µM | 56 µM | 
COc1ccc(Nc2cccnc2)cc1 | 183 µM | 96 µM | 68 µM | 145 µM | 118 µM | 
CCc1ccc(Nc2nc3ccccc3cc2-c2ccccc2)cc1 | 66 µM | 73 µM | 99 µM | 140 µM | 92 µM | 
CCc1ccc(Nc2cc(-c3cccc(C(F)(F)F)c3)ccn2)cc1 |  |  |  | > 200 µM | > 200 µM | 
COc1ccc(Nc2nc3ccccc3cc2-c2ccc(C)cc2)cc1 | 118 µM | 137 µM | 75 µM | 102 µM | 65 µM | 
COc1cccc(Nc2cc(-c3cccc(C(F)(F)F)c3)ccn2)c1 |  |  |  | > 200 µM | > 200 µM | 
COc1ccc(Nc2cc(-c3ccc(C)cc3)ccn2)cc1 | 34 µM | 52 µM | 19 µM | 43 µM | 33 µM | 
